According to patent EP0584797A2, “Novel cephalosporin compounds and processes for the preparation thereof” (LUCKY LTD., priority 1992, dated 1994):
Values after ≈ are worked out from the molar mass of the structure shown.

Experiments:
Test in all cases: minimal inhibitory concentration, two-fold agar dilution
Assay type in all cases: cell-based
[1] = test system: Acinetobacter calcoaceticus ATCC 15473; settings: ATCC15473, Muller-Hinton agar, 37°C, 20 hours, read-out: MIC values against the standard strains
Experimental: (§1) These MIC values were taken by employing a two-fold dilution method: that is, two-fold serial dilutions of each of the test compounds were made and dispersed in a Muller-Hinton agar medium; 2µl of the standard test strain which had the 10⁷ CFU(Colony Forming Unit) per ml was inoculated on the medium; and these were incubated at 37°C for 20 hours.

[2] = test system: Bacillus cereus ATCC 11778; settings: ATCC11778, Muller-Hinton agar, 37°C, 20 hours, read-out: MIC values against the standard strains
Experimental: as §1

[3] = test system: Bacillus megaterium ATCC 9885; settings: Priestia megaterium, ATCC9885; Muller-Hinton agar; 37°C; 20 hours; read-out: MIC values against the standard strains
Experimental: as §1

[4] = test system: Citrobacter freundii ATCC 8090; settings: ATCC8090, Muller-Hinton agar, 37°C, 20 hours, read-out: MIC values against the standard strains
Experimental: as §1

[5] = test system: Enterobacter aerogenes ATCC 29751; settings: Klebsiella aerogenes, ATCC29751; Muller-Hinton agar; 37°C; 20 hours; read-out: MIC values against the standard strains
Experimental: as §1

[6] = test system: Enterobacter cloacae ATCC 27508; settings: ATCC27508, Muller-Hinton agar, 37°C, 20 hours, read-out: MIC values against the standard strains
Experimental: as §1

[7] = test system: Escherichia coli ATCC 10536; settings: ATCC10536, Muller-Hinton agar, 37°C, 20 hours, read-out: MIC values against the standard strains
Experimental: as §1

[8] = test system: Escherichia coli ATCC 25922; settings: ATCC25922, Muller-Hinton agar, 37°C, 20 hours, read-out: MIC values against the standard strains
Experimental: as §1

[9] = test system: Klebsiella pneumoniae ATCC 10031; settings: ATCC10031, Muller-Hinton agar, 37°C, 20 hours, read-out: MIC values against the standard strains
Experimental: as §1

[10] = test system: Micrococcus luteus ATCC 9341; settings: ATCC9341, Muller-Hinton agar, 37°C, 20 hours, read-out: MIC values against the standard strains
Experimental: as §1

[11] = test system: Morganella morganii ATCC 8076h; settings: ATCC8076H, Muller-Hinton agar, 37°C, 20 hours, read-out: MIC values against the standard strains
Experimental: as §1

[12] = test system: Proteus mirabilis ATCC 25933; settings: ATCC25933, Muller-Hinton agar, 37°C, 20 hours, read-out: MIC values against the standard strains
Experimental: as §1

[13] = test system: Proteus vulgaris ATCC 6059; settings: ATCC6059, Muller-Hinton agar, 37°C, 20 hours, read-out: MIC values against the standard strains
Experimental: as §1

[14] = test system: Providencia rettgeri ATCC 9250; settings: ATCC9250, Muller-Hinton agar, 37°C, 20 hours, read-out: MIC values against the standard strains
Experimental: as §1

[15] = test system: Pseudomonas aeruginosa ATCC 10145; settings: ATCC10145, Muller-Hinton agar, 37°C, 20 hours, read-out: MIC values against the standard strains
Experimental: as §1

[16] = test system: Pseudomonas aeruginosa ATCC 25619; settings: ATCC25619, Muller-Hinton agar, 37°C, 20 hours, read-out: MIC values against the standard strains
Experimental: as §1

[17] = test system: Pseudomonas aeruginosa ATCC 27853; settings: ATCC27853, Muller-Hinton agar, 37°C, 20 hours, read-out: MIC values against the standard strains
Experimental: as §1

[18] = test system: Salmonella typhimurium ATCC 14028; settings: Salmonella enterica; Muller-Hinton agar; 37°C; 20 hours; read-out: MIC values against the standard strains
Experimental: as §1

[19] = test system: Serratia marcescens ATCC 27117; settings: ATCC27117, Muller-Hinton agar, 37°C, 20 hours, read-out: MIC values against the standard strains
Experimental: as §1

[20] = test system: Shigella flexneri ATCC 11836; settings: ATCC11836, Muller-Hinton agar, 37°C, 20 hours, read-out: MIC values against the standard strains
Experimental: as §1

[21] = test system: Staphylococcus aureus ATCC 10537; settings: ATCC10537, Muller-Hinton agar, 37°C, 20 hours, read-out: MIC values against the standard strains
Experimental: as §1

[22] = test system: Staphylococcus aureus ATCC 6538p; settings: ATCC6538P, Muller-Hinton agar, 37°C, 20 hours, read-out: MIC values against the standard strains
Experimental: as §1

[23] = test system: Staphylococcus epidermidis ATCC 12228; settings: ATCC12228, Muller-Hinton agar, 37°C, 20 hours, read-out: MIC values against the standard strains
Experimental: as §1

[24] = test system: Streptococcus faecalis ATCC 29212; settings: Enterococcus faecalis, ATCC29212; Muller-Hinton agar; 37°C; 20 hours; read-out: MIC values against the standard strains
Experimental: as §1

[25] = test system: Shigella sonnei ATCC 11060; settings: ATCC11060, Muller-Hinton agar, 37°C, 20 hours, read-out: MIC values against the standard strains
Experimental: as §1

Which results are given for `C[C@@H](O/N=C(\C(=O)N[C@@H]1C(=O)N2C(C(=O)[O-])=C(CSc3nc(N)c(N)c(N)[n+]3C)CS[C@H]12)c1csc(N)n1)C(=O)O` [Example 82-b, 7-[(Z)-2-(2-aminothiazol-4-yl)-2-{1-carboxyeth-1-oxyimino}acetamido]-3-(4,5,6-triamino-1-methylpyrimidinium-2-yl)thiomethyl-3-cephem-4-carboxylate]?
MIC [1]: 8 µg/mL (≈ 12.8 µM); MIC [2]: 128 µg/mL (≈ 205 µM); MIC [3]: 0.5 µg/mL (≈ 0.8 µM); MIC [4]: 0.063 µg/mL (≈ 0.101 µM); MIC [5]: 0.5 µg/mL (≈ 0.8 µM); MIC [6]: ≤ 0.008 µg/mL; MIC [7]: 0.031 µg/mL (≈ 0.0496 µM); MIC [8]: 0.031 µg/mL (≈ 0.0496 µM); MIC [9]: 0.031 µg/mL (≈ 0.0496 µM); MIC [10]: 0.5 µg/mL (≈ 0.8 µM); MIC [11]: ≤ 0.008 µg/mL; MIC [12]: 0.031 µg/mL (≈ 0.0496 µM); MIC [13]: 0.031 µg/mL (≈ 0.0496 µM); MIC [14]: ≤ 0.008 µg/mL; MIC [15]: 2 µg/mL (≈ 3.2 µM); MIC [16]: 1 µg/mL (≈ 1.6 µM); MIC [17]: 1 µg/mL (≈ 1.6 µM); MIC [18]: 0.063 µg/mL (≈ 0.101 µM); MIC [19]: 0.063 µg/mL (≈ 0.101 µM); MIC [20]: 0.031 µg/mL (≈ 0.0496 µM); MIC [21]: 2 µg/mL (≈ 3.2 µM); MIC [22]: 8 µg/mL (≈ 12.8 µM); MIC [23]: 2 µg/mL (≈ 3.2 µM); MIC [24]: > 128 µg/mL

How did the MIC [1] turn out when `CC(C)(O/N=C(\C(=O)N[C@@H]1C(=O)N2C(C(=O)[O-])=C(CSc3nc(N)cc[n+]3N)CS[C@H]12)c1csc(N)n1)C(=O)O` [Example 43] was run?
Its MIC is 2 µg/mL (≈ 3.28 µM).

And the MIC [2]?
The MIC was 128 µg/mL (≈ 210 µM).

What about the MIC [3] of the same molecule?
The MIC was 0.5 µg/mL (≈ 0.82 µM).

And the MIC [4]?
The MIC was 0.063 µg/mL (≈ 0.103 µM).

What about the MIC [5] of the same molecule?
The MIC was 0.5 µg/mL (≈ 0.82 µM).

And the MIC [6]?
Its MIC is at most 0.008 µg/mL.

What about the MIC [7] of the same molecule?
Its MIC is 0.063 µg/mL (≈ 0.103 µM).

What about the MIC [8] of the same molecule?
The MIC was 0.063 µg/mL (≈ 0.103 µM).

What about the MIC [9] of the same molecule?
Its MIC is 0.063 µg/mL (≈ 0.103 µM).

And the MIC [10]?
The MIC was 0.5 µg/mL (≈ 0.82 µM).

What about the MIC [11] of the same molecule?
The MIC was at most 0.008 µg/mL.

And the MIC [12]?
Its MIC is 0.031 µg/mL (≈ 0.0508 µM).

And the MIC [13]?
Its MIC is 0.031 µg/mL (≈ 0.0508 µM).

And the MIC [14]?
Its MIC is at most 0.008 µg/mL.

What about the MIC [15] of the same molecule?
The MIC was 2 µg/mL (≈ 3.28 µM).

And the MIC [16]?
Its MIC is 1 µg/mL (≈ 1.64 µM).

And the MIC [17]?
The MIC was 1 µg/mL (≈ 1.64 µM).

What about the MIC [18] of the same molecule?
Its MIC is 0.13 µg/mL (≈ 0.213 µM).

And the MIC [19]?
Its MIC is 0.13 µg/mL (≈ 0.213 µM).

What about the MIC [20] of the same molecule?
The MIC was 0.031 µg/mL (≈ 0.0508 µM).

What about the MIC [25] of the same molecule?
Its MIC is 0.063 µg/mL (≈ 0.103 µM).

What about the MIC [21] of the same molecule?
Its MIC is 2 µg/mL (≈ 3.28 µM).

And the MIC [22]?
The MIC was 8 µg/mL (≈ 13.1 µM).

And the MIC [23]?
The MIC was 2 µg/mL (≈ 3.28 µM).

And the MIC [24]?
The MIC was over 128 µg/mL.

Which MIC [1] does the source give for `CN(C)c1cc(N)nc(SCC2=C(C(=O)[O-])N3C(=O)[C@@H](NC(=O)/C(=N\OC(C)(C)C(=O)O)c4csc(N)n4)[C@H]3SC2)[n+]1C` [Example 50, 7-[(Z)-2-(2-aminothiazol-4-yl)-2-(carboxyprop-2-oxyimino)acetamido]-3-{4-amino-1-methyl-6-(N,N-dimethyl)aminopyrimidinium-2-yl}thiomethyl-3-cephem-4-carboxylate] here?
Its MIC is 4 µg/mL (≈ 6.14 µM).

And the MIC [2]?
The MIC was 128 µg/mL (≈ 196 µM).

And the MIC [3]?
Its MIC is 0.25 µg/mL (≈ 0.384 µM).

What about the MIC [4] of the same molecule?
Its MIC is 0.063 µg/mL (≈ 0.0967 µM).

What about the MIC [5] of the same molecule?
Its MIC is 0.5 µg/mL (≈ 0.767 µM).

And the MIC [6]?
The MIC was at most 0.008 µg/mL.

And the MIC [7]?
The MIC was 0.063 µg/mL (≈ 0.0967 µM).

What about the MIC [8] of the same molecule?
The MIC was 0.063 µg/mL (≈ 0.0967 µM).

And the MIC [9]?
The MIC was 0.063 µg/mL (≈ 0.0967 µM).

What about the MIC [10] of the same molecule?
The MIC was 0.25 µg/mL (≈ 0.384 µM).

And the MIC [11]?
Its MIC is at most 0.008 µg/mL.

What about the MIC [12] of the same molecule?
Its MIC is 0.031 µg/mL (≈ 0.0476 µM).

What about the MIC [13] of the same molecule?
The MIC was 0.031 µg/mL (≈ 0.0476 µM).

And the MIC [14]?
The MIC was at most 0.008 µg/mL.

What about the MIC [15] of the same molecule?
Its MIC is 2 µg/mL (≈ 3.07 µM).

And the MIC [16]?
The MIC was 1 µg/mL (≈ 1.53 µM).

And the MIC [17]?
The MIC was 1 µg/mL (≈ 1.53 µM).

What about the MIC [18] of the same molecule?
Its MIC is 0.13 µg/mL (≈ 0.199 µM).

What about the MIC [19] of the same molecule?
Its MIC is 0.13 µg/mL (≈ 0.199 µM).

What about the MIC [20] of the same molecule?
The MIC was 0.031 µg/mL (≈ 0.0476 µM).

And the MIC [25]?
Its MIC is 0.063 µg/mL (≈ 0.0967 µM).

What about the MIC [21] of the same molecule?
The MIC was 4 µg/mL (≈ 6.14 µM).

What about the MIC [22] of the same molecule?
The MIC was 8 µg/mL (≈ 12.3 µM).

And the MIC [23]?
Its MIC is 2 µg/mL (≈ 3.07 µM).

And the MIC [24]?
Its MIC is over 128 µg/mL.
